Measurements taken from US9067935B2 (Janssen Pharmaceutica, NV, priority 2010, dated 2015).
Where “and” joins values, the source holds several entries; their conditions need not be identical. Equal entries are not always repeated. Where two headings read alike, the source gives them in different places.

Target: canine TRPM8 (Canis lupus familiaris, UniProt Q1A7N1)
Experiment: In Vitro Canine TRPM8 Functional Assay (intracellular Ca2+ fluorescence, icilin challenge)
Assay type: cell-based
Details: for IC50: icilin at ~80% maximal response
Procedure: The functional activity of compounds of the formula (I) was determined by measuring changes in intracellular calcium concentration using a Ca^2+-sensitive fluorescent dye. The changes in fluorescent signal were monitored by a fluorescence plate reader, either a FLIPR™ (Molecular Devices) or FDSS (Hamamatsu).
At 24 hrs prior to assay, HEK293 cells stably expressing canine TRPM8 were seeded in culture medium in black wall, clear-base poly-D-lysine coated 384-well plates (BD Biosciences, NJ, USA) and grown overnight in 5% CO2 at 37° C. On assay day, growth media was removed and cells were loaded with Calcium 3 Dye (Molecular Devices) for 35 min at 37° C., under 5% CO2 and then for 25 min at room temperature and atmosphere. Subsequently, cells were tested for agonist-induced increases in intracellular Ca^2+ levels using FLIPR™ or FDSS. Cells were challenged with a compound of the Formula (I) (at varying concentrations) and intracellular Ca^2+ was measured for 5 min prior to the addition of icilin to all wells to achieve a final concentration that produces approximately an 80% maximal response. EC50 or IC50 values for compounds of the present invention were determined from eight-point dose-response studies. Curves were generated using the average of quadruplicate wells for each data point.

[1] = HEK293 cells stably expressing canine TRPM8
[2] = HEK293, @ 0.2 μM, HEK293 cells stably expressing canine TRPM8, read-out: % Inh (%) @ 0.2 μM

Chain of canine TRPM8 (Q1A7N1 1-1104): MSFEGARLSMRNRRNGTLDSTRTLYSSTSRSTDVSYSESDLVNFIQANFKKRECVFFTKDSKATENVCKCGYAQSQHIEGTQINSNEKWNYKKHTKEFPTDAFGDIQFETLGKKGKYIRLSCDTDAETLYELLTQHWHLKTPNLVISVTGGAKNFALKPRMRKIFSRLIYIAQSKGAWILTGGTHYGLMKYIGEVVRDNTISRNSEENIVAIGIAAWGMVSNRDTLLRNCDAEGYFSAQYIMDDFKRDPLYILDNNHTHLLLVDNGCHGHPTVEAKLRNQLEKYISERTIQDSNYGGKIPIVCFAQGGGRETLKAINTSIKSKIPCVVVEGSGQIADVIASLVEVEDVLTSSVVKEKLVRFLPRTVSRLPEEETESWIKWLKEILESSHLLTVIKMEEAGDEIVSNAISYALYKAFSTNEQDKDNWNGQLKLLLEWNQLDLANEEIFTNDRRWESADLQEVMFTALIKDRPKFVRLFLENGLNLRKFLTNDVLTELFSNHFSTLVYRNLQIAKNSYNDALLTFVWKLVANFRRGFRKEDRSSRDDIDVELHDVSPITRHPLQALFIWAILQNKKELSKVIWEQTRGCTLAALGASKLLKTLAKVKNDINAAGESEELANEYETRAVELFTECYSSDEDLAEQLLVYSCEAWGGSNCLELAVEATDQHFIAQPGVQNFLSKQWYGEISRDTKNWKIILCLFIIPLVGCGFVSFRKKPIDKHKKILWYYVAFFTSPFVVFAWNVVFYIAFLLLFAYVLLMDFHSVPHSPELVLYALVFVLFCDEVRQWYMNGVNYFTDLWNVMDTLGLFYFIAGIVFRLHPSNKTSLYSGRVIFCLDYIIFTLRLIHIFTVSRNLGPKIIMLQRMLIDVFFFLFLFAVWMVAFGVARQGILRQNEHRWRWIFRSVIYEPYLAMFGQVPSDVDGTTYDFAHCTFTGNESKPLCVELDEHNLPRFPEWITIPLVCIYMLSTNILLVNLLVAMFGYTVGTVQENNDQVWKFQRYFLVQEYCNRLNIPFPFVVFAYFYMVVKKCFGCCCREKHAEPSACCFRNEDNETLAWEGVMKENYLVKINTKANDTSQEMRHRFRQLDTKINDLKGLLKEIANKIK

Compound	IC50 [1]	inhibition at 0.2 µM (HEK293, read-out: % Inh (%) @ 0.2 μM) [%]	inhibition at 0.2 µM [2] [%]
O=S(=O)(c1ccccc1)N(Cc1ccc(F)c(C(F)(F)F)c1)c1nc2ccccn2c1Cl [Compound 1]	3.25 nM	–	–
O=S(=O)(c1ccccc1)N(Cc1ccc(OC(F)(F)F)cc1)c1nc2ccccn2c1Cl [Compound 3]	1.8 nM	–	–
CS(=O)(=O)N(Cc1ccc(OC(F)(F)F)cc1)c1nc2ccccn2c1Br [Compound 4]	16.7 nM	–	–
O=S(=O)(c1ccccc1)N(Cc1ccc(OC(F)(F)F)cc1)c1nc2ccccn2c1Br [Compound 5]	5.3 nM	–	–
O=C(O)c1ccc(S(=O)(=O)N(Cc2ccc(OC(F)(F)F)cc2)c2nc3ccccn3c2Cl)cc1 [Compound 6]	–	102	–
O=S(=O)(c1ccccc1)N(Cc1ccc(OC(F)(F)F)cc1)c1nc2ccc(Cl)cn2c1Cl [Compound 7]	29.8 nM	–	–
O=S(=O)(c1ccc(F)cc1)N(Cc1ccc(OC(F)(F)F)cc1)c1nc2ccccn2c1Cl [Compound 9]	13.6 nM	–	–
O=S(=O)(c1ccc(F)cc1)N(Cc1ccc(F)c(C(F)(F)F)c1)c1nc2ccccn2c1Cl [Compound 10]	17.4 nM	–	–
Cc1c(N(Cc2ccc(OC(F)(F)F)cc2)S(=O)(=O)c2ccccc2)nc2ccccn12 [Compound 11]	5.68 nM	–	–
O=S(=O)(c1ccccc1)N(Cc1ccc(OC(F)(F)F)cc1)c1cn2ccccc2n1 [Compound 12]	48.7 nM	–	–
O=S(=O)(c1ccccc1)N(Cc1ccc(F)c(C(F)(F)F)c1)c1cn2ccccc2n1 [Compound 13]	48.9 nM	–	–
Cc1c(N(Cc2ccc(OC(F)(F)F)cc2)S(=O)(=O)c2ccccc2)nc2cc(Cl)ccn12 [Compound 14]	20.7 nM	–	–
Cc1c(N(Cc2ccc(F)c(C(F)(F)F)c2)S(=O)(=O)c2ccccc2)nc2cc(Cl)ccn12 [Compound 15]	16 nM	–	–
O=S(=O)(c1ccccc1)N(Cc1ccc(F)cc1)c1nc2ccc(Cl)cn2c1Cl [Compound 16]	72 nM	–	–
O=S(=O)(c1ccccc1)N(Cc1ccc(F)c(F)c1)c1nc2ccc(Cl)cn2c1Cl [Compound 18]	78.6 nM	–	–
Cc1c(N(Cc2ccc(OC(F)(F)F)cc2)S(=O)(=O)c2ccccc2)nc2ccc(F)cn12 [Compound 19]	14.4 nM	–	–
Cc1c(N(Cc2ccc(F)c(C(F)(F)F)c2)S(=O)(=O)c2ccccc2)nc2ccc(F)cn12 [Compound 20]	10.1 nM	–	–
Cc1c(N(Cc2ccc(C(F)(F)F)c(F)c2)S(=O)(=O)c2ccccc2)nc2ccc(F)cn12 [Compound 21]	10.6 nM and 12.4 nM	–	–
Cc1c(N(Cc2ccc(OC(F)(F)F)cc2)S(C)(=O)=O)nc2ccc(F)cn12 [Compound 22]	–	–	51

Compound	IC50 [1]	inhibition at 0.2 µM (HEK293, read-out: % Inh (%) @ 0.2 μM) [%]	inhibition at 0.2 µM [2] [%]
Cc1c(N(Cc2ccc(F)c(C(F)(F)F)c2)S(C)(=O)=O)nc2ccc(F)cn12 [Compound 23]	–	–	58
O=S(=O)(c1ccccc1)N(Cc1ccc(C(F)(F)F)c(F)c1)c1cn2ccccc2n1 [Compound 24]	13.4 nM	–	–
O=S(=O)(c1ccccc1)N(Cc1ccc(C(F)(F)F)c(F)c1)c1nc2ccccn2c1Br [Compound 25]	3.49 nM	–	–
Cc1ccn2c(C)c(N(Cc3ccc(OC(F)(F)F)cc3)S(=O)(=O)c3ccccc3)nc2c1 [Compound 26]	10.1 nM	–	100
Cc1ccn2c(C)c(N(Cc3ccc(C(F)(F)F)c(F)c3)S(=O)(=O)c3ccccc3)nc2c1 [Compound 27]	6.11 nM	–	100
Cc1ccn2c(C)c(N(Cc3ccc(F)c(C(F)(F)F)c3)S(=O)(=O)c3ccccc3)nc2c1 [Compound 28]	8.01 nM	–	100
O=S(=O)(c1ccccc1)N(Cc1ccc(C(F)(F)F)c(F)c1)c1nc2ccc(Cl)cn2c1Cl [Compound 29]	32.2 nM	–	90
Cc1cccn2c(C)c(N(Cc3ccc(OC(F)(F)F)cc3)S(=O)(=O)c3ccccc3)nc12 [Compound 30]	10 nM	–	100
Cc1cccn2c(C)c(N(Cc3ccc(F)c(C(F)(F)F)c3)S(=O)(=O)c3ccccc3)nc12 [Compound 31]	10.3 nM	–	101
Cc1cccn2c(C)c(N(Cc3ccc(C(F)(F)F)c(F)c3)S(=O)(=O)c3ccccc3)nc12 [Compound 32]	12.5 nM	–	100
Cc1cccn2c(C)c(N(Cc3ccc(C(F)(F)F)cc3)S(=O)(=O)c3ccccc3)nc12 [Compound 33]	26.7 nM	–	99
Cc1cccn2c(C)c(N(Cc3cccc(C(F)(F)F)c3)S(=O)(=O)c3ccccc3)nc12 [Compound 34]	9.83 nM	–	100
Cc1cccn2c(C)c(N(Cc3ccc(F)c(C(F)(F)F)c3)S(C)(=O)=O)nc12 [Compound 35]	44.9 nM	–	74
Cc1c(N(Cc2ccc(OC(F)(F)F)cc2)S(=O)(=O)c2ccccc2)nc2ccc(Cl)cn12 [Compound 36]	22.5 nM	–	100
Cc1c(N(Cc2ccc(F)c(C(F)(F)F)c2)S(=O)(=O)c2ccccc2)nc2ccc(Cl)cn12 [Compound 37]	29.4 nM	–	100
Cc1ccc2nc(N(Cc3ccc(OC(F)(F)F)cc3)S(=O)(=O)c3ccccc3)c(C)n2c1 [Compound 39]	28.9 nM	–	99
Cc1ccc2nc(N(Cc3ccc(F)c(C(F)(F)F)c3)S(=O)(=O)c3ccccc3)c(C)n2c1 [Compound 40]	22.2 nM	–	100
Cc1ccc2nc(N(Cc3ccc(C(F)(F)F)c(F)c3)S(=O)(=O)c3ccccc3)c(C)n2c1 [Compound 41]	25.3 nM	–	100
Cc1ccn2c(C)c(N(Cc3ccc(F)c(C(F)(F)F)c3)S(=O)(=O)c3ccc(Br)cc3)nc2c1 [Compound 42]	25.4 nM	–	99

Compound	IC50 [1]	inhibition at 0.2 µM (HEK293, read-out: % Inh (%) @ 0.2 μM) [%]	inhibition at 0.2 µM [2] [%]
Cc1c(N(Cc2ccc(C(F)(F)F)cc2)S(=O)(=O)c2ccccc2)nc2ccc(Cl)cn12 [Compound 43]	24.3 nM	–	99
Cc1c(N(Cc2cccc(C(F)(F)F)c2)S(=O)(=O)c2ccccc2)nc2ccc(Cl)cn12 [Compound 44]	18.3 nM	–	100
Cc1c(N(Cc2cccc(OC(F)(F)F)c2)S(=O)(=O)c2ccccc2)nc2ccc(Cl)cn12 [Compound 45]	39 nM	–	99
Cc1c(N(Cc2ccc(F)c(Cl)c2)S(=O)(=O)c2ccccc2)nc2ccc(Cl)cn12 [Compound 46]	13.6 nM	–	99
Cc1cccc2nc(N(Cc3ccc(F)c(C(F)(F)F)c3)S(=O)(=O)c3ccccc3)c(C)n12 [Compound 48]	11 nM	–	99
Cc1cccc2nc(N(Cc3ccc(C(F)(F)F)c(F)c3)S(=O)(=O)c3ccccc3)c(C)n12 [Compound 49]	13.3 nM	–	99
CC(C)c1c(N(Cc2ccc(F)c(C(F)(F)F)c2)S(=O)(=O)c2ccccc2)nc2ccccn12 [Compound 50]	12.3 nM	–	101
CC(C)c1c(N(Cc2ccc(C(F)(F)F)c(F)c2)S(=O)(=O)c2ccccc2)nc2ccccn12 [Compound 51]	6.56 nM	–	101
CC(C)c1c(N(Cc2ccc(OC(F)(F)F)cc2)S(=O)(=O)c2ccccc2)nc2ccccn12 [Compound 52]	9.43 nM	–	101
CC(C)c1c(N(Cc2ccc(C(F)(F)F)cc2)S(=O)(=O)c2ccccc2)nc2ccccn12 [Compound 53]	3.19 nM	–	101
CC(C)c1c(N(Cc2cccc(C(F)(F)F)c2)S(=O)(=O)c2ccccc2)nc2ccccn12 [Compound 54]	7.92 nM	–	101
CCc1c(N(Cc2ccc(F)c(C(F)(F)F)c2)S(=O)(=O)c2ccccc2)nc2c(C(F)(F)F)cccn12 [Compound 55, N-(3-Ethyl-8-trifluoromethylimidazo[1,2-a]pyridin-2-yl)-N-(4-fluoro-3-trifluoromethylbenzyl)benzenesulfonamide]	33.4 nM	–	94
CCc1c(N(Cc2ccc(C(F)(F)F)c(F)c2)S(=O)(=O)c2ccccc2)nc2c(C(F)(F)F)cccn12 [Compound 56]	65 nM	–	99
CCc1c(N(Cc2ccc(OC(F)(F)F)cc2)S(=O)(=O)c2ccccc2)nc2c(C(F)(F)F)cccn12 [Compound 57]	96.6 nM	–	82
CCc1c(N(Cc2ccc(C(F)(F)F)cc2)S(=O)(=O)c2ccccc2)nc2c(C(F)(F)F)cccn12 [Compound 58]	71.5 nM	–	87
CCc1c(N(Cc2cccc(C(F)(F)F)c2)S(=O)(=O)c2ccccc2)nc2c(C(F)(F)F)cccn12 [Compound 59]	80.2 nM	–	97
O=S(=O)(c1ccccc1)N(Cc1ccc(C(F)(F)F)c(F)c1)c1nc2ccc(C(F)(F)F)cn2c1Cl [Compound 60, N-(3-Chloro-6-trifluoromethylimidazo[1,2-a]pyridin-2-yl)-N-(3-fluoro-4-trifluoromethylbenzyl)benzenesulfonamide]	–	–	55
O=S(=O)(c1ccccc1)N(Cc1ccc(OC(F)(F)F)cc1)c1nc2ccc(C(F)(F)F)cn2c1Cl [Compound 61]	–	–	47
O=S(=O)(c1ccccc1)N(Cc1ccc(F)c(C(F)(F)F)c1)c1nc2ccc(C(F)(F)F)cn2c1Cl [Compound 62]	–	–	56
